This is an account of results in patent publication US11691970B2, “Pyrazolopyridinone compounds” (Janssen Pharmaceutica NV, priority 2017, dated 2023).

Assay [1] addresses T1, human FGFR3 V555L enzyme (cytoplasmic domain carrying V555L mutation) (Homo sapiens, UniProt P22607, V555L).
T1 construct: human FGFR3 V555L enzyme (cytoplasmic domain carrying V555L mutation, from Carna Biosciences); purchased Carna Biosciences
Put plainly: FGFR3 V555L mobility shift assay (enzymatic assay). In kind it is biochemical. The conditions noted are these: 40 μM ATP, 50 minutes at 30° C, Caliper EZ reader II. From the text: FGFR3 V555L Mobility Shift Assay (Enzymatic Assay)

For assay [2], the target named is T2, NIH/3T3 cells overexpressing FGFR3 WT-TACC3 fusion protein (Homo sapiens, UniProt P22607).
T2 construct: NIH/3T3 FGFR3 WT-TACC3 CTG (IC50); other: 72-hr incubation, CellTiter Glo, top concentration 10 μM; fused on or other part: Q9Y6A5 (Transforming acidic coiled-coil-containing protein 3)
Put plainly: NIH/3T3 FGFR3 WT-TACC3 cell proliferation assay (CellTiter Glo). In kind it is cell-based. The conditions noted are these: 72-hr incubation, top concentration 10 μM, read-out: NIH/3T3 FGFR3 WT-TACC3 CTG (IC50). On the procedure:
NIH/3T3 FGFR3 WT-TACC3 Cell Proliferation Assay
In day 1, 90 μL of cell suspension (NIH/3T3 cells overexpressing FGFR3 WT-TACC3 fusion protein) (total 30,000 cells per well in growth medium (DMEM containing 1% Glutamax, 10% FBS and 1% Pen/Strep)) was seeded in a 96-well plate and then incubated overnight at 37° C. and 5% CO2. […] After 72-hr incubation at 37° C. and 5% CO2, in day 5 a volume of 50 μL CellTiter Glo (CTG) reagent was added into cell-containing 96-well plate and the plate was incubated at room temperature for 10 minutes before RLUs (relative light unit) were measured on a microplate reader with luminescence detection module.
(In general: In ATP-based viability assays light output follows the ATP content of the culture.)

Assay [3] deals with T3, human FGFR3 wild type enzyme (cytoplasmic domain) (Homo sapiens, UniProt P22607).
T3 construct: human FGFR3 wild type enzyme (cytoplasmic domain, from Carna Biosciences); purchased Carna Biosciences
The assay is described as follows: FGFR3 wild type mobility shift assay (enzymatic assay). In kind it is biochemical. The conditions noted are these: 75 μM ATP, 50 minutes at 30° C, Caliper EZ reader II. From the text: FGFR3 Wild Type Mobility Shift Assay (Enzymatic Assay)

Assay [4] deals with NIH/3T3 cells transfected with control vector. The assay is described as follows: NIH/3T3 mock cell proliferation assay (counter assay, CellTiter Glo). In kind it is cell-based. The conditions noted are these: 72-hr incubation, top concentration 30 μM, counter assay for general toxicity, read-out: NIH/3T3 MOCK CTG (IC50). On the procedure:
NIH/3T3 Mock Cell Proliferation Assay
In day 1, 90 μL of cell suspension (NIH/3T3 cells transfected with the same control vector as in the above two proliferation assays) (total 30,000 cells per well in growth medium (DMEM containing 1% Glutamax, 10% FBS and 1% Pen/Strep)) was seeded in a 96-well plate and then incubated overnight at 37° C. and 5% CO2. In day 2, 10 μL of growth medium containing 10-fold stock solution of testing compound was added into cell cultures (9 dose points with 3× serial dilution, starting with 30 μM, 0.3% DMSO final). After 72-hr incubation at 37° C. and 5% CO2, in day 5 a volume of 50 μL CellTiter Glo (CTG) reagent was added into cell-containing 96-well plate and the plate was incubated at room temperature for 10 minutes before RLUs (relative light unit) were measured on a microplate reader with luminescence detection module.

The test system of assay [5] is NIH/3T3 cells overexpressing FGFR3 WT-TACC3 fusion protein. Put plainly: NIH/3T3 FGFR3 WT-TACC3 cellular phospho-ERK assay (in vitro PD assay). In kind it is cell-based. The conditions noted are these: Mus musculus, NIH3T3; 1-hr incubation, AlphaLISA SureFire Ultra p-ERK1/2 (Thr202/Tyr204); read-out: NIH/3T3 FGFR3 WT-TACC3 pERK (IC50). A general note: Bead proximity is the source of the signal in Alpha formats.
Protocol: NIH/3T3 FGFR3 WT-TACC3 Cellular Phospho-ERK Assay (In Vitro PD Assay)
50 μL of cell suspension (NIH/3T3 cells overexpressing FGFR3 WT-TACC3 fusion protein) (total 10,000 cells per well in growth medium (DMEM containing 1% Glutamax, 10% FBS and 1% Pen/Strep)) was seeded in a 384-well plate. […] After 1-hr incubation at 37° C. and 5% CO2, the medium was depleted and AlphaLISA SureFire Ultra p-ERK1/2 (Thr202/Tyr204) Assay Kit (from PerkinElmer) was applied for phospho-ERK level detection according to the kit instructions.

Read-outs that look alike come from different tables or passages of the source.

T3 sequence (P22607 397-806 limits assumed): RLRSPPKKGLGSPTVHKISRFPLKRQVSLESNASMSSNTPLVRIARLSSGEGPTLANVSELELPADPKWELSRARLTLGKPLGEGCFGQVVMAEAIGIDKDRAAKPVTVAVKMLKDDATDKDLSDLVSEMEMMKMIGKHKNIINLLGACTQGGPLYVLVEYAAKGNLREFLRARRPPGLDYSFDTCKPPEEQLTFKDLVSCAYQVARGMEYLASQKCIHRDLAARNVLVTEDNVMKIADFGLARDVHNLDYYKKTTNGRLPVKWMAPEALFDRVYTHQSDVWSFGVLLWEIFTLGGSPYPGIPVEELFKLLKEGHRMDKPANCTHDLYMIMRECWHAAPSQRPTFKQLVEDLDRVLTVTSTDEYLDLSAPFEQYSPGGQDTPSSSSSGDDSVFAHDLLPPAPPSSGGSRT
T2 sequence (P22607 whole entry, change not shown, the tested form may be a part): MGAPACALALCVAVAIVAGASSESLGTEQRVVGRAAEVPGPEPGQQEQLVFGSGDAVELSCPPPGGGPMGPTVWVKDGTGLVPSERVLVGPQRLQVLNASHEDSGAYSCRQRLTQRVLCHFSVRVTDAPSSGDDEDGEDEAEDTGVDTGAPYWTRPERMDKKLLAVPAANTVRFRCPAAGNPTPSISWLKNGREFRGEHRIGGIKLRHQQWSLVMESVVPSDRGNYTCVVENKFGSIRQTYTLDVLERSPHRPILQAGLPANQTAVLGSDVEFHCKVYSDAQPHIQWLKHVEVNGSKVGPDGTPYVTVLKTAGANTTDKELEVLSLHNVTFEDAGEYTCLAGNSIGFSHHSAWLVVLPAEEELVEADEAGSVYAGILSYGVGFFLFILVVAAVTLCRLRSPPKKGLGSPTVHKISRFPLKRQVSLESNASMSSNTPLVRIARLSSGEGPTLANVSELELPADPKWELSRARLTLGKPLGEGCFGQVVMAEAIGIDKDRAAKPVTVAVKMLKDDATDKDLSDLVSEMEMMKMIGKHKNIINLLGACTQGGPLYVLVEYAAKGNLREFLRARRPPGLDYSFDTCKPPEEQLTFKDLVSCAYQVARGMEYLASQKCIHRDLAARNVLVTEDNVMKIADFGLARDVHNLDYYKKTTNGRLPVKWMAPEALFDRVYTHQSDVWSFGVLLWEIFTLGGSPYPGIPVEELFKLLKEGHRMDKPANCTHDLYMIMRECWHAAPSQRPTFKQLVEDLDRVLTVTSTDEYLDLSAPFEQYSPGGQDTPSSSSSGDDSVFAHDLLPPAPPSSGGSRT
T1 sequence (P22607 397-806 V555L limits assumed): as the sequence (P22607 397-806 limits assumed) above, with V159L counted along it

Take `CC(Nc1c(-c2nc3ccc(N4CCOCC4)cc3[nH]2)c(=O)[nH]c2cn(C)nc12)c1cscn1` (single isomer, unassigned) [Compound 41, (S*)-2-methyl-6-(6-morpholino-1H-benzo[d]imidazol-2-yl)-7-((1-(thiazol-4-yl)ethyl)-amino)-2H-pyrazolo[4,3-b]pyridin-5(4H)-one]: the IC50 in assay [1] turned out to be 50.8 nM; in assay [3] it was 23.7 nM; in assay [4] (Mus musculus, NIH3T3, 72 h) it was 425 nM. Also, the GI50 in assay [2] is 5.57 nM.

In the case of `CC(Nc1c(-c2nc3ccc(N4CCOCC4)cc3[nH]2)c(=O)[nH]c2cn(C)nc12)c1cscn1` (single isomer, unassigned) [Compound 42, (R*)-2-methyl-6-(6-morpholino-1H-benzo[d]imidazol-2-yl)-7-((1-(thiazol-4-yl)ethyl)-amino)-2H-pyrazolo[4,3-b]pyridin-5(4H)-one], the IC50 in assay [5] amounted to 2.73 nM; in assay [3], 18.9 nM; in assay [4] it was 305 nM. Further, in assay [2], the GI50 came to 8.84 nM.

`C[C@H](Nc1c(-c2nc3ccc(C4CCOCC4)c(F)c3[nH]2)c(=O)[nH]c2cn(C)nc12)c1ncccn1` [Compound 13, (S)-6-(7-fluoro-6-(tetrahydro-2H-pyran-4-yl)-1H-benzo[d]imidazol-2-yl)-2-methyl-7-((1-(pyrimidin-2-yl)ethyl)amino)-2H-pyrazolo[4,3-b]pyridin-5(4H)-one]: in assay [2], the GI50 stood at 22.1 nM. The IC50 is 1.15 nM in assay [3] and 2100 nM in assay [4] (Mus musculus, NIH3T3, 72 h).

For the molecule `C[C@H](Nc1c(-c2nc3ccc(N4CCN(C)CC4)cc3[nH]2)c(=O)[nH]c2cn(C)nc12)c1ccccc1` [Compound 18, (S)-2-Methyl-6-(6-(4-methylpiperazin-1-yl)-1H-benzo[d]imidazol-2-yl)-7-((1-phenylethyl)amino)-2H-pyrazolo[4,3-b]pyridin-5(4H)-one], the GI50 in assay [2] stood at 74.3 nM. The IC50 in assay [3] amounted to 2.02 nM; in assay [4] (Mus musculus, NIH3T3, 72 h), 680 nM.

As for `C[C@H](Nc1c(-c2nc3ccc(N4CCOC(F)(F)C4)cc3[nH]2)c(=O)[nH]c2cn(C)nc12)c1ncccn1` [Compound 25, (S)-6-(6-(2,2-difluoromorpholino)-1H-benzo[d]imidazol-2-yl)-2-methyl-7-((1-(pyrimidin-2-yl)ethyl)amino)-2H-pyrazolo[4,3-b]pyridin-5(4H)-one], the GI50 in assay [2] worked out at 22.3 nM. Moreover, the IC50 is 0.495 nM in assay [3] and 1210 nM in assay [4] (Mus musculus, NIH3T3, 72 h).

With `C[C@H](Nc1c(-c2nc3ccc(N4CCCCC4=O)c(F)c3[nH]2)c(=O)[nH]c2cn(C)nc12)c1ncccn1` [Compound 27, (S)-6-(7-fluoro-6-(2-oxopiperidin-1-yl)-1H-benzo[d]imidazol-2-yl)-2-methyl-7-((1-(pyrimidin-2-yl)ethyl)amino)-2H-pyrazolo[4,3-b]pyridin-5(4H)-one], the GI50 in assay [2] worked out at 99.9 nM. Moreover, the IC50 in assay [3] turned out to be 0.61 nM; in assay [4] (Mus musculus, NIH3T3, 72 h), 1370 nM.

With `C[C@H](Nc1c(-c2nc3ccc(N4CCCCC4)cc3[nH]2)c(=O)[nH]c2cn(C)nc12)c1ccccn1` [Compound 33, (S)-2-methyl-6-(6-(piperidin-1-yl)-1H-benzo[d]imidazol-2-yl)-7-((1-(pyridin-2-yl)ethyl)-amino)-2H-pyrazolo[4,3-b]pyridin-5(4H)-one], the GI50 in assay [2] was 258 nM. In addition, the IC50 in assay [3] amounted to 17.5 nM; in assay [4] (Mus musculus, NIH3T3, 72 h), 6530 nM.

Consider `CCn1cc2[nH]c(=O)c(-c3nc4cnc(N5CCOCC5)cc4[nH]3)c(N[C@@H](C)c3ncccn3)c2n1` [Compound 43, (S)-2-ethyl-6-(6-morpholino-1H-imidazo[4,5-c]pyridin-2-yl)-7-((1-(pyrimidin-2-yl)ethyl)-amino)-2H-pyrazolo[4,3-b]pyridin-5(4H)-one], for which the GI50 in assay [2] worked out at 12.6 nM. Further, the IC50 in assay [3] was found to be 1.04 nM; in assay [4] (Mus musculus, NIH3T3, 72 h), 415 nM.

`CCn1cc2[nH]c(=O)c(-c3nc4ccc(N5CCOCC5)cc4[nH]3)c(N[C@@H](C)c3ncccn3)c2n1` [Compound 46, (S)-2-ethyl-6-(6-morpholino-1H-benzo[d]imidazol-2-yl)-7-((1-(pyrimidin-2-yl)ethyl)-amino)-2H-pyrazolo[4,3-b]pyridin-5(4H)-one]: in assay [2], the GI50 stood at 13.2 nM. Moreover, the IC50 in assay [3] worked out at 0.891 nM; in assay [4] (Mus musculus, NIH3T3, 72 h), 1070 nM.

For the molecule `CCn1cc2[nH]c(=O)c(-c3nc4cnc(N5CCOCC5)cc4[nH]3)c(N[C@@H](C)c3ccccn3)c2n1` [Compound 47, (S)-2-ethyl-6-(6-morpholino-1H-imidazo[4,5-c]pyridin-2-yl)-7-((1-(pyridin-2-yl)ethyl)-amino)-2,4-dihydro-5H-pyrazolo[4,3-b]pyridin-5-one], the GI50 in assay [2] is 17.4 nM. Moreover, the IC50 in assay [3] turned out to be 2.03 nM; in assay [4] (Mus musculus, NIH3T3, 72 h) it was 1040 nM.

Turning to `CCn1cc2[nH]c(=O)c(-c3nc4c(F)cc(N5CCN(C)CC5)cc4[nH]3)c(N[C@@H](C)c3ncccn3)c2n1` [Compound 48, (S)-2-ethyl-6-(4-fluoro-6-(4-methylpiperazin-1-yl)-1H-benzo[d]imidazol-2-yl)-7-((1-(pyrimidin-2-yl)ethyl)amino)-2H-pyrazolo[4,3-b]pyridin-5(4H)-one], the GI50 in assay [2] is 9.04 nM. In addition, the IC50 amounted to 0.738 nM in assay [3] and 352 nM in assay [4] (Mus musculus, NIH3T3, 72 h).

Consider `CCn1cc2[nH]c(=O)c(-c3nc4c(F)cc(N5CC(OC)C5)cc4[nH]3)c(N[C@@H](C)c3ncccn3)c2n1` [Compound 49, (S)-2-ethyl-6-(4-fluoro-6-(3-methoxyazetidin-1-yl)-1H-benzo[d]imidazol-2-yl)-7-((1-(pyrimidin-2-yl)ethyl)amino)-2H-pyrazolo[4,3-b]pyridin-5(4H)-one], for which the GI50 in assay [2] amounted to 28.1 nM. The IC50 in assay [3] was found to be 2.51 nM; in assay [4] (Mus musculus, NIH3T3, 72 h), 460 nM.

In the case of `COc1cc2nc(-c3c(N[C@@H](C)c4ncccn4)c4nn(C)cc4[nH]c3=O)[nH]c2cc1N1CCOCC1` [Compound 52, (S)-6-(5-methoxy-6-morpholino-1H-benzo[d]imidazol-2-yl)-2-methyl-7-((1-(pyrimidin-2-yl)ethyl)amino)-2H-pyrazolo[4,3-b]pyridin-5(4H)-one], the GI50 in assay [2] is 4.11 nM. The IC50 in assay [3] is 0.704 nM; in assay [4] (Mus musculus, NIH3T3, 72 h), 390 nM.
